{"source": "paper PMC9184620", "about": "“TAS1553, a small molecule subunit interaction inhibitor of ribonucleotide reductase, exhibits antitumor activity by causing DNA replication stress” (Communications Biology, 2022)", "key": {"human R1": {"biological_target": "T1, human R1 (Homo sapiens, UniProt P23921)", "T1 construct": "made in house; host or cells: Escherichia coli", "T1 sequence (P23921 1-792)": "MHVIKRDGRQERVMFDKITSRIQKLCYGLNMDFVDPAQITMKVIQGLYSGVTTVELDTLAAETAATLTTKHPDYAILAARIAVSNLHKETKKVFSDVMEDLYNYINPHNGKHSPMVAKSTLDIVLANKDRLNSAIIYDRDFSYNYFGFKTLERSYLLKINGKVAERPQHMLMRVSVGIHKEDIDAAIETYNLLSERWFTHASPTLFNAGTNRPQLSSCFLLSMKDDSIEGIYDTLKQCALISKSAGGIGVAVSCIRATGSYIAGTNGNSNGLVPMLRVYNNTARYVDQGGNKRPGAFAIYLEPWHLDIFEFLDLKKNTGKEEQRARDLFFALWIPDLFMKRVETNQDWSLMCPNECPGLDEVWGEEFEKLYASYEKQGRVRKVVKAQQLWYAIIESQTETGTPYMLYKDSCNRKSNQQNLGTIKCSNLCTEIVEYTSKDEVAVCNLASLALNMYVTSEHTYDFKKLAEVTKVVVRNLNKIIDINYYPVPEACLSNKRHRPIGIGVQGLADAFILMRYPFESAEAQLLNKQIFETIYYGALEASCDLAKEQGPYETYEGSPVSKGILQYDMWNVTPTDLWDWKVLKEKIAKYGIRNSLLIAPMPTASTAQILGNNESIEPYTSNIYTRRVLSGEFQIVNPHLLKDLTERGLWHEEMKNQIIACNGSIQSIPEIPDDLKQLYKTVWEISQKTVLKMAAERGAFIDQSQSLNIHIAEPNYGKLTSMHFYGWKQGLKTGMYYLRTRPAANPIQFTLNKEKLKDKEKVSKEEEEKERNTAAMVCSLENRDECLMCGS", "test": "Surface plasmon resonance binding analysis", "settings": "SPR, steady-state affinity, three independent experiments", "method": "(§1) The binding affinity of TAS1553 to the R1 subunit was investigated using surface plasmon resonance (SPR) binding analysis. […] Next, we evaluated the inhibitory effect of TAS1553 against the enzymatic activity of RNR, consisting of R1 and R2 recombinant proteins. RNR activity was determined by its ability to reduce cytidine diphosphate (CDP) to deoxycytidine diphosphate (dCDP), based on a previous report. […] In addition to the inhibitory effect on RNR, TAS1553 was evaluated in a Eurofins LeadProfilingScreen panel assay including 68 proteins, such as ion channels, transporters, nuclear receptors, and G protein-coupled receptors, to examine its potential adverse activity."}, "[1]": {"biological_target": "T2, RNR (R1 and R2 recombinant proteins) (Homo sapiens, UniProt P23921)", "T2 construct": "made in house; host or cells: Escherichia coli", "T2 sequence (P23921 1-792)": "T1 sequence (P23921 1-792)", "test": "RNR assay (formation of dCDP from CDP)", "type": "biochemical", "settings": "CDP to dCDP; mean ± SD; read-out: Enzyme IC50", "method": "as §1\nThe inhibition of RNR activity by the test compound was evaluated by measuring the formation of dCDP from CDP, as reported previously. The assay was performed for 30 min at 37 °C in a reaction mixture composed of 50 mmol/L HEPES, 4 mmol/L magnesium acetate, 100 mmol/L KCl, 6 mmol/L DTT, 2 mmol/L ATP, 0.24 mmol/L NADPH, 10.0 µmol/L CDP, 0.1 mg/mL BSA, 8.0 µg/mL His-R1, 2.4 µg/mL His-R2, and 1% DMSO with or without test compound. The reaction was discontinued by heat treatment at 95 °C for 5 min. The amount of dCDP after the reaction was quantified by a prominence HPLC system and LabSolutions software (SHIMADZU CORPORATION). Separations were performed at 265 nm in a Shim-pack XR-ODS column of particle size 2.2 μm (100 × 3.0 mm, SHIMADZU GLC Ltd.). Overall, 5 µL of each sample was injected, and chromatography was performed at 40 °C. Mobile A was composed of 10 mmol/L potassium dihydrogenphosphate, 10 mmol/L tetrabutylammonium hydroxide, 0.25% methanol and 8 mmol/L HCl. Mobile B was composed of 50 mmol/L potassium dihydrogenphosphate, 5.6 mmol/L tetrabutylammonium hydroxide, and 30% methanol. The gradient was as follows: 52–60% B for 9 min, 60–99% B for 1 min, 99% B for 5 min, 99–52% B for 1 min, and 52% B for 5 min. The flow rate was 0.5 mL/min. The experiment was performed in triplicates. IC50 values were calculated using the SAS software package."}, "[2]": {"test_system": "human solid and hematological cancer cell lines", "test": "Cell proliferation assay (CellTiter-Glo), cell line panel", "type": "cell-based", "settings": "72 h, range over solid and hematological cancer cell lines, 3 days exposure", "method": "The growth inhibitory effect of TAS1553 was determined by calculating the GI50 value against human solid and hematological cancer cell lines.\nCell proliferation assay was performed as reported previously. Briefly, cells were plated and incubated for 1 day, followed by 3 days of exposure to the compound. After compound exposure, viable cells were detected by using the CellTiter-Glo luminescent cell viability assay (Promega). GI50 values were calculated using the SAS software package. The experiment was performed in triplicates."}, "MLL-AF9 AML cells": {"test_system": "MLL-AF9 AML cells", "test": "Survival in systemic AML model (mice bone marrow cells harboring human MLL-AF9 fusion gene)", "type": "in vivo, mouse", "settings": "100 mg/kg daily", "method": "Next, we evaluated the antitumor activity of a high-dose administration of TAS1553 and cytarabine in rats bearing MV-4-11 xenografts. […] The rats were treated with cytarabine for 5 days at 16 and 32 mg/kg. […] In addition to the hematologic tumor, we evaluated the antitumor activity of TAS1553 in mice implanted with HCC38 cell line as a solid tumor model. […] Finally, TAS1553 was evaluated for its survival benefit in a mouse model. To achieve this, we established mice bone marrow cells harboring the human MLL-AF9 fusion gene, which is known as a driver gene for AML in humans as well as mice[48]. Mice were transplanted with the cells through the tail vein and the treatment with TAS1553 was started 11 days post-implantation."}}, "data": [{"compound": "Cc1ccc(F)c([C@@H](C)[C@H](NS(=O)(=O)c2ccc(Cl)cc2C(N)=O)c2n[nH]c(=O)o2)c1C", "note": "[TAS1553, 5-chloro-2-{N-[(1S,2R)-2-(6-fluoro-2,3-dimethylphenyl)-1-(5-oxo-4,5-dihydro-1,3,4-oxadiazol-2-yl)propyl]sulfamoyl}benzamide]", "values": [{"measurement": "Kd", "setting": "human R1", "result": "34.9 ± 0.9", "unit": "nM"}, {"measurement": "IC50", "setting": "[1]", "result": "54.2 ± 6.1", "unit": "nM"}, {"measurement": "GI50", "setting": "[2]", "result": "228 to 4150", "unit": "nM"}, {"measurement": "median survival time", "setting": "MLL-AF9 AML cells; start 11 days post-implantation", "result": 75.5, "unit": "days"}, {"measurement": "increase in the life span", "setting": "MLL-AF9 AML cells; versus control", "result": 34.8, "unit": "%"}]}]}
